For the first experiment, the target named is T1, c-Myc-Max heterodimers (Homo sapiens, UniProt P01106).
T1 construct: c-Myc bHLH-ZIP domain (residues 353-437); His6-TEV protease substrate tag; made in house; host or cells: bacteria (pET151 vector for Myc)
T1 sequence (P01106 368-452, one chain of several): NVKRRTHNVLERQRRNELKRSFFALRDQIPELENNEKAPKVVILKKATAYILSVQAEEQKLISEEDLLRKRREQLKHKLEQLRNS
Briefly: Electrophoretic mobility shift assay (EMSA) of c-Myc-Max dimerization and DNA binding. Particulars: Table 1; 100 μM compound; Myc-Max/DNA band intensity relative to control; read-out: Inhibition at 100 μM (%). How it is done:
The ability of a small-molecule to interfere with c-Myc-Max dimerization is conveniently assessed through the disruption of the c-Myc-Max/DNA ternary complex by an electrophoretic mobility shift assay (EMSA) using fluorescently-labelled DNA, and subsequently quantified by densitometry.(23) Accordingly, a 100-member library was screened for the ability to disrupt the c-Myc-Max dimer.
These were performed essentially as described previously (23). Briefly, Ni^+-agarose-purified His6-tagged c-Myc bHLH-ZIP domain (residues 353-437) was used for all binding assays as was the His6-tagged 151 residue isoform of Max, otherwise referred to as Max(S) (residues 2-151) (21). For each binding reaction, the proteins were allowed to heterodimerize at a concentration of 30 nM each in the presence of 20 nM of a 5′-HEX-tagged double-stranded 22-base pair oligonucleotide 5′-hexachlorofluoresceine-[…]-3′ (SEQ ID NO: 1) containing a consensus c-Myc binding site (CACGTG) and the indicated concentration of small molecule inhibitor. Control reactions contained the same oligonucleotide in the presence of 60 nM of the 160 residue isoform of Max referred to as Max(L) (21). All binding reactions were prepared in a buffer consisting of PBS (pH 7.3), 1 mmol/L EDTA, 0.1% NP40, 5% glycerol, 1 mmol/L DTT, and 0.4 mg/mL bovine serum albumin. Electrophoresis was performed on 8% polyacrylamide/bisacrylamide (80:1) gels in […] (23). Each reaction was run on at least three separate occasions.
EMSAs were performed essentially as described utilizing bacterially-expressed recombinant proteins purified nearly to homogeneity.(23) Experiments with Max homodimers used the His6-tagged 160 amino acid isoform of the protein, termed Max(L), which homodimerizes and binds DNA well. For studies with Myc-Max heterodimers, the His6-tagged 151 residue isoform of Max [Max(S)] was used, which binds DNA well as a heterodimer with Myc but poorly as a homodimer.(23) Recombinant Myc protein, expressed in the pET151 vector, consisted of the His6-TEV protease substrate-tagged 85 amino acid bHLH-ZIP domain. (23) Each protein was purified by Ni-agarose affinity chromatography as previously described. (23) The His6-TEV tag was removed from the Myc protein by TEV protease cleavage followed by re-purification using Ni-agarose affinity chromatography to remove the His6-TEV protease and the cleaved His6-TEV tag as previously described. Binding assays were performed with 30 nM of each protein and 30 nM of a 6-carboxy-2′,4,4′,5′,7,7′-hexachlorofluorescein (HEX)-tagged double-stranded oligonucleotide containing a consensus Myc binding site (IDT, Coralville, Iowa).(23)
Take `O=[N+]([O-])c1ccc(NC2CCCCC2)c2nonc12` [Compound 3b, N-Cyclohexyl-7-nitrobenzo[c][1,2,5]oxadiazol-4-amine]: the inhibition at 100 µM was 11%.

With `O=[N+]([O-])c1ccc(NCc2ccccc2)c2nonc12` [Compound 3c, N-Benzyl-7-nitrobenzo[c][1,2,5]oxadiazol-4-amine], the inhibition at 100 µM was determined as 0%. As to `O=[N+]([O-])c1ccc(N2CCCCC2)c2nonc12` [Compound 3d, 4-Nitro-7-(piperidin-1-yl)benzo[c][1,2,5]oxadiazole], the inhibition at 100 µM amounted to 10%. Take `Cc1ccccc1Nc1ccc([N+](=O)[O-])c2nonc12` [Compound 3e, 7-Nitro-N-(o-tolyl)benzo[c][1,2,5]oxadiazol-4-amine]: the inhibition at 100 µM stood at 11%. For `O=[N+]([O-])c1ccc(Nc2ccccc2Br)c2nonc12` [Compound 3f, N-(2-Bromophenyl)-7-nitrobenzo[c][1,2,5]oxadiazol-4-amine], the inhibition at 100 µM was around 40%. `O=[N+]([O-])c1ccc(Nc2ccccc2O)c2nonc12` [Compound 3g, 2-((7-Nitrobenzo[c][1,2,5]oxadiazol-4-yl)amino)phenol]: the inhibition at 100 µM worked out at 13%. For `COc1ccccc1Nc1ccc([N+](=O)[O-])c2nonc12` [Compound 3h, N-(2-Methoxyphenyl)-7-nitrobenzo[c][1,2,5]oxadiazol-4-amine], the inhibition at 100 µM is 0%. On to `O=C(O)c1ccccc1Nc1ccc([N+](=O)[O-])c2nonc12` [Compound 3i, 2-((7-Nitrobenzo[c][1,2,5]oxadiazol-4-yl)amino)benzoic acid], for which the inhibition at 100 µM came to 8%. As to `O=[N+]([O-])c1ccc(Oc2ccccc2-c2ccccc2)c2nonc12` [Compound 3j, 4-([1,1′-Biphenyl]-2-yloxy)-7-nitrobenzo[c][1,2,5]oxadiazole], the inhibition at 100 µM amounted to 36%. On the same count and under the same terms, next, `O=C(O)c1cccc(Nc2ccc([N+](=O)[O-])c3nonc23)c1` [Compound 3m, 3-((7-Nitrobenzo[c][1,2,5]oxadiazol-4-yl)amino)benzoic acid]: 0%.

The experiment is the same for the next values; noted with them: Table 2; 100 μM compound; Myc-Max/DNA band intensity relative to control; read-out: Inhibition at 100 μM (%).
For the compound `CC(=O)Nc1ccc(Nc2ccccc2-c2ccccc2)c2nonc12` [Compound 5a, N-(7-([1,1′-Biphenyl]-2-ylamino)benzo[c][1,2,5]oxadiazol-4-yl)acetamide], the inhibition at 100 µM was 2%. For `O=C(Nc1ccc(Nc2ccccc2-c2ccccc2)c2nonc12)C(F)(F)F` [Compound 5b, N-(7-([1,1′-Biphenyl]-2-ylamino)benzo[c][1,2,5]oxadiazol-4-yl)-2,2,2-trifluoroacetamide], the inhibition at 100 µM is 25%. Take `COC(=O)Nc1ccc(Nc2ccccc2-c2ccccc2)c2nonc12` [Compound 5c, Methyl (7-([1,1′-biphenyl]-2-ylamino)benzo[c][1,2,5]oxadiazol-4-yl)carbamate]: the inhibition at 100 µM was found to be 0%.

Turning to `O=C(O)CCC(=O)Nc1ccc(Nc2ccccc2-c2ccccc2)c2nonc12` [Compound 5d, 4-((7-([1,1′-Biphenyl]-2-ylamino)benzo[c][1,2,5]oxadiazol-4-yl)amino)-4-oxobutanoic acid], the inhibition at 100 µM came to 17%.

The same experiment, now with this note: Table 10; 100 μM small-molecule, EMSA; read-out: % Inhibition of c-Myc-Max Dimerization.
For `Cc1cccc(-c2cc(C(=O)O)ccc2Nc2ccc([N+](=O)[O-])c3nonc23)c1` [Compound 3j53-5], the inhibition at 100 µM was 16%. On to `O=C(O)c1ccc(Nc2ccc([N+](=O)[O-])c3nonc23)c(-c2ccccc2)c1` [Compound 3jc42], for which the inhibition at 100 µM was found to be 10%. On the same count and under the same terms, next, `O=C(O)c1ccc(Nc2ccc([N+](=O)[O-])c3nonc23)c(-c2ccccc2-c2ccccc2)c1` [Compound 3jc53-1]: 18%; `O=C(O)c1ccc(Nc2ccc([N+](=O)[O-])c3nonc23)c(-c2cccc(-c3ccccc3)c2)c1` [Compound 3jc53-2]: 0%; `O=C(O)c1ccc(Nc2ccc([N+](=O)[O-])c3nonc23)c(-c2ccc(-c3ccccc3)cc2)c1` [Compound 3jc53-3]: 41%. Consider `Cc1ccccc1-c1cc(C(=O)O)ccc1Nc1ccc([N+](=O)[O-])c2nonc12` [Compound 3jc53-4], for which the inhibition at 100 µM turned out to be 7%. Turning to `N#Cc1ccccc1-c1cc(C(=O)O)ccc1Nc1ccc([N+](=O)[O-])c2nonc12` [Compound 3jc53-7], the inhibition at 100 µM was found to be 44%. Take `N#Cc1cccc(-c2cc(C(=O)O)ccc2Nc2ccc([N+](=O)[O-])c3nonc23)c1` [Compound 3jc53-8]: the inhibition at 100 µM is 23%. With `N#Cc1ccc(-c2cc(C(=O)O)ccc2Nc2ccc([N+](=O)[O-])c3nonc23)cc1` [Compound 3jc53-9], the inhibition at 100 µM was found to be 13%. In the case of `CCc1ccc(-c2cc(C(=O)O)ccc2Nc2ccc([N+](=O)[O-])c3nonc23)cc1` [Compound 3jc53-10], the inhibition at 100 µM was 34%.

On to `CC(C)c1ccc(-c2cc(C(=O)O)ccc2Nc2ccc([N+](=O)[O-])c3nonc23)cc1` [Compound 3jc53-11], for which the inhibition at 100 µM is 0%. On the same count and under the same terms, next, `CC(C)(C)c1ccc(-c2cc(C(=O)O)ccc2Nc2ccc([N+](=O)[O-])c3nonc23)cc1` [Compound 3jc53-12]: 2%.

Turning to `O=C(O)c1ccc(Nc2ccc([N+](=O)[O-])c3nonc23)c(-c2ccccc2O)c1` [Compound 3jc53-13], the inhibition at 100 µM turned out to be 0%. `COc1ccc(-c2cc(C(=O)O)ccc2Nc2ccc([N+](=O)[O-])c3nonc23)cc1` [Compound 3jc53-14]: the inhibition at 100 µM came to 4%. `O=C(O)c1ccc(-c2cc(C(=O)O)ccc2Nc2ccc([N+](=O)[O-])c3nonc23)cc1` [Compound 3jc53-15]: the inhibition at 100 µM was 6%. For the compound `Cc1ccccc1-c1cc(Nc2ccc([N+](=O)[O-])c3nonc23)ccc1C(=O)O` [Compound 3jc62-1], the inhibition at 100 µM came out at 0%.

With `Cc1cccc(-c2cc(Nc3ccc([N+](=O)[O-])c4nonc34)ccc2C(=O)O)c1` [Compound 3jc62-2], the inhibition at 100 µM is 0%. With `Cc1ccc(-c2cc(Nc3ccc([N+](=O)[O-])c4nonc34)ccc2C(=O)O)cc1` [Compound 3jc62-3], the inhibition at 100 µM is 0%. For the compound `N#Cc1ccccc1-c1cc(Nc2ccc([N+](=O)[O-])c3nonc23)ccc1C(=O)O` [Compound 3jc62-4], the inhibition at 100 µM was found to be 0%.

Consider `N#Cc1cccc(-c2cc(Nc3ccc([N+](=O)[O-])c4nonc34)ccc2C(=O)O)c1` [Compound 3jc62-5], for which the inhibition at 100 µM was determined as 8%. Turning to `N#Cc1ccc(-c2cc(Nc3ccc([N+](=O)[O-])c4nonc34)ccc2C(=O)O)cc1` [Compound 3jc62-6], the inhibition at 100 µM worked out at 25%. `O=C(O)c1ccc(Nc2ccc([N+](=O)[O-])c3nonc23)cc1-c1ccccc1` [Compound 3jc62-7]: the inhibition at 100 µM was found to be 0%.

With `O=C(O)c1ccc(Nc2ccc([N+](=O)[O-])c3nonc23)c(-c2ccc(C(F)(F)F)cc2)c1` [Compound 4jc23-6], the inhibition at 100 µM worked out at 0%.

The experiment is the same for the next values; noted with them: read-out: Inhibition at 100 μM (%), Table 1; 100 μM compound; Myc-Max/DNA band intensity relative to control.
As for `O=[N+]([O-])c1ccc(Nc2ccccc2)c2nonc12` [Compound 3a, 7-Nitro-N-phenylbenzo[c][1,2,5]oxadiazol-4-amine], the inhibition at 100 µM amounted to 2%. Take `O=[N+]([O-])c1ccc(Nc2ccc(-c3ccccc3)cc2)c2nonc12` [Compound 3n]: the inhibition at 100 µM is 28%. Regarding `Cc1ccc(Nc2ccc([N+](=O)[O-])c3nonc23)cc1` [Compound 3o, 7-Nitro-N-(p-tolyl)benzo[c][1,2,5]oxadiazol-4-amine], the inhibition at 100 µM worked out at 0%.

The record behind these values is US9242944B2 (UNIVERSITY OF MARYLAND, BALTIMORE, priority 2013, dated 2016).
